Data on 1 compound can be found in patent US20070059264A1, “Reduction of hair growth” (priority 2005, published 2007).

The experiment concerns axillary (armpit) hair growth. Nature of the experiment: Axillary hair growth reduction in human subjects (hair length by image analysis). Format: in vivo. Conditions: for Hair Length (μm): Example 1 including 3% DFMO once a day to armpit, six human subjects; for % Reduction (hair length): Example 1 including 3% DFMO vs Right Guard roll-on vehicle. The protocol:
Example 1, including 3% DFMO, was tested in six human subjects to determine the effectiveness of the composition for reducing hair growth. The composition was applied once a day to one armpit in a subject; Right Guard® roll-on product was applied once daily to the other armpit. The hair length measurements were made at select time intervals using a semi automated image analysis system. For these measurements, the subjects shaved both armpits and then digital images of the treatment areas (DFMO and Vehicle) were taken at 24, 48, and 72 hr later. The number of hairs measured per site ranged from 58 to 87.
The results after six weeks and 16 weeks are shown below.

Setting [1] is: after 6 weeks, 24 Hrs after shaving.
Where [2] appears, read: after 6 weeks, 48 Hrs after shaving.
[3] abbreviates: after 6 weeks, 72 Hrs after shaving.
Setting [4] is: after 16 weeks, 24 Hrs after shaving.
Setting [5] is: after 16 weeks, 48 Hrs after shaving.
[6] abbreviates: after 16 weeks, 72 Hrs after shaving.

Consider `NCCCC(N)(C(=O)O)C(F)F` (stereo not drawn) [DFMO, α-Difluoromethylomithine], for which the “Hair Length (μm)” value under setting [1] is 274 ± 15 μm; the “Hair Length (μm)” value under setting [2] stood at 509 ± 26 μm; the “Hair Length (μm)” value under setting [3] came out at 867 ± 34 μm; the “Hair Length (μm)” value under setting [4] worked out at 170 ± 16 μm; the “Hair Length (μm)” value under setting [5] is recorded as 273 ± 23 μm; the “Hair Length (μm)” value under setting [6] came to 326 ± 24 μm. The “% Reduction (hair length)” value under setting [1] worked out at 48 ± 3%; the “% Reduction (hair length)” value under setting [2] worked out at 49 ± 3%; the “% Reduction (hair length)” value under setting [3] is reported as 46 ± 2%; the “% Reduction (hair length)” value under setting [4] worked out at 66 ± 3%; the “% Reduction (hair length)” value under setting [5] was 73 ± 3%; the “% Reduction (hair length)” value under setting [6] turned out to be 75 ± 2%.
